Target: Na^+, K^+-ATPase
Experiment: Na+,K+-ATPase assay (orthophosphate release)
Format: biochemical, porcine
Protocol: Na^+, K^+-ATPase activity was assessed using a modified version of the method by Seals et al., based on measuring the change in orthophosphate concentration released during ATP hydrolysis. The incubation mixture was prepared at 50 mM TRIS-HCl (pH 7.4), containing 5 mM MgCl2, 100 mM NaCl, 20 mM KCl, 25 μL of 5mg/mL commercial enzyme solution, and 20 μL of an inhibitor solution at a certain concentration. After preincubating the mixture for 10 min at 37 °C, the reaction was initiated by adding 20 μL of 20 mM ATP. The reaction proceeded for 10 min at 37 °C before being terminated by adding 22 μL of 3 M cold perchloric acid, with the tube then placed on ice. In the blank sample, the incubation mixture contained only TRIS buffer (pH 7.4) without MgCl2, NaCl, or KCl. The reaction volume was adjusted to a final volume of 200 μL, after which 4.5 mL of water was added. Released orthophosphate was quantified using a colorimetric reaction with 200 μL of 0.2 M ammonium molybdate in 30% sulfuric acid and one drop of 2.5% SnCl2 in glycerol. Total ATPase activity was determined by measuring the absorbance of solution at 690 nm. Enzyme activity was expressed as relative enzyme activity (REA), defined as the percentage of Na^+, K^+-ATPase activity remaining in comparison to samples without inhibitor (control activity).

COc1cc2c(cc1OC)CN(Cc1c(O)cc(O)c3c(=O)c(O)c(-c4ccc(O)c(O)c4)oc13)CC2 [Compound 2b]
IC50 (37 °C): 970 nM
Percentage Inhibition Na^+, K^+-ATPase (at 1 × 10^−4 M, 37 °C): 100%
fold decrease in IC50 toward Na^+, K^+-ATPase compared to bare quercetin (versus quercetin): 50 fold

From PMC12068008 (International Journal of Molecular Sciences, 2024)
